Measured values: patent US20260124281A1, “FORMULATIONS COMPRISING ACID-NEUTRALIZING POLYMER FOR ORAL ADMINISTRATION OF PARATHYROID HORMONE” (Entera Bio Ltd., priority 2022, published 2026)

Experiments:
[1] = pH upon addition of test substance to 0.1 M HCl solution (pH 1.2), pH meter; type: physicochemical
Experimental: The solution pH was determined using an MP-103 pH-meter (MRC, Israel) equipped with ELC-10-00 electrode (MRC, Israel) or with a thin electrode HI1083 (HANNA instruments Inc.), shortly after dissolution and up to 26 hours later in order to ensure that the pH remained stable. The highest pH value obtained during the experimental time period was recorded in order to compare the acid-neutralizing capacity of each substance.
SNAC and the basic polymers sodium alginate, sodium carboxymethylcellulose in non-crosslinked (Na-CMC) and crosslinked (croscarmellose sodium, CCS) forms, and sodium starch glycolate (SSG) were dissolved in various volumes of 0.1 M HCl solution (pH 1.2) at concentrations of 1, 2, 4, 10, 20, 50, 100 and 150 mg/ml, and the solution pH was determined using an MP-103 pH-meter (MRC, Israel) equipped with ELC-10-00 electrode (MRC, Israel), as described in the Materials and Methods section hereinabove.
In order to obtain a beneficial rise in pH with a reduced loss of the active form of the absorption enhancer, the effect of various concentrations of different polymers containing carboxylate groups (sodium alginate, sodium starch glycolate, sodium carboxymethylcellulose, and croscarmellose sodium) on pH upon addition to a 0.1 M HCl solution (pH 1.2) was also evaluated. FIG. 3A presents pH values determined using an MP-103 pH-meter (MRC, Israel) equipped with ELC-10-00 electrode (MRC, Israel) and FIG. 3B presents pH values determined using an MP-103 pH-meter (MRC, Israel) equipped with a thin electrode HI1083 (HANNA instruments Inc.).

pepsin = experiment: Proteolysis of hPTH(1-34) by pepsin at various pH values; type: in vitro ADME; conditions: 13.5 μg/ml hPTH(1-34), 150 μg/ml pepsin, 37° C., media pH 2-7
Experimental: The effect of pH on peptide proteolysis by pepsin was determined by incubating 13.5 μg/ml human parathyroid hormone (1-34) (hPTH(1-34)) with 150 μg/ml pepsin, at various pH values, and determining the percentage of hPTH(1-34) which remained. The amount of hPTH(1-34) remaining upon addition to 150 μg/ml pepsin at 37° C., was determined in media with different pH values, followed by immediate (10 second) vortex and centrifugation for 3 minutes at 4° C., 4000 RCF. The following media were used: simulated gastric fluid (pH 2), prepared from 0.01 M HCl and NaCl; phthalate buffer (pH 4 or 5); and phosphate buffer (pH 6 or 7).

| pH 5 minutes after dissolution ([1]; 10 mg/ml SNAC added to HCl solution (pH 1.2)) | pH 5 minutes after dissolution ([1]; 20 mg/ml SNAC added to HCl solution (pH 1.2)) | pH 5 minutes after dissolution ([1]; 100 mg/ml SNAC added to HCl solution (pH 1.2)) | dissolution upon addition to HCl solution ([1]; HCl solution (pH 1.2)) | pH at which proteolysis of hPTH(1-34) by pepsin was inhibited (pepsin) | Compound |
| --- | --- | --- | --- | --- | --- |
| about 1.5 | 6.5 | about 7.5 | dissolved rapidly | – | O=C(O)CCCCCCCNC(=O)c1ccccc1O [SNAC, sodium 8-N-(2-hydroxybenzoyl)aminocaprylate] |
| – | – | – | – | ≥ 6 | CC[C@H](C)[C@H](NC(=O)[C@H](CCC(=O)O)NC(=O)[C@H](CO)NC(=O)[C@@H](NC(=O)[C@@H](N)CO)C(C)C)C(=O)N[C@@H](CCC(N)=O)C(=O)N[C@@H](CC(C)C)C(=O)N[C@@H](CCSC)C(=O)N[C@@H](Cc1cnc[nH]1)C(=O)N[C@@H](CC(N)=O)C(=O)N[C@@H](CC(C)C)C(=O)NCC(=O)N[C@@H](CCCCN)C(=O)N[C@@H](Cc1cnc[nH]1)C(=O)N[C@@H](CC(C)C)C(=O)N[C@@H](CC(N)=O)C(=O)N[C@@H](CO)C(=O)N[C@@H](CCSC)C(=O)N[C@@H](CCC(=O)O)C(=O)N[C@@H](CCCN=C(N)N)C(=O)N[C@H](C(=O)N[C@@H](CCC(=O)O)C(=O)N[C@@H](Cc1c[nH]c2ccccc12)C(=O)N[C@@H](CC(C)C)C(=O)N[C@@H](CCCN=C(N)N)C(=O)N[C@@H](CCCCN)C(=O)N[C@@H](CCCCN)C(=O)N[C@@H](CC(C)C)C(=O)N[C@@H](CCC(N)=O)C(=O)N[C@@H](CC(=O)O)C(=O)N[C@H](C(=O)N[C@@H](Cc1cnc[nH]1)C(=O)N[C@@H](CC(N)=O)C(=O)N[C@@H](Cc1ccccc1)C(=O)O)C(C)C)C(C)C [hPTH(1-34), teriparatide] |
